{"source": "paper PMC7733796", "about": "(Proceedings of the National Academy of Sciences of the …, 2020)", "key": {"[1]": {"system": "Sandhoff disease (Hexβ−/−) mice", "assay": "Sandhoff disease", "type": "in vivo, mouse"}, "ERK1/2, p38-MAPK, IκBα": {"system": "ERK1/2, p38-MAPK, IκBα", "assay": "Western blot of phosphorylation downstream of CXCR4 in hNSCs", "type": "cell-based, human", "settings": "hNSC lysates"}, "CXCR4 [2]": {"molecular_target": "T1, CXCR4 (Homo sapiens, UniProt P61073)", "T1 sequence (P61073 whole entry)": "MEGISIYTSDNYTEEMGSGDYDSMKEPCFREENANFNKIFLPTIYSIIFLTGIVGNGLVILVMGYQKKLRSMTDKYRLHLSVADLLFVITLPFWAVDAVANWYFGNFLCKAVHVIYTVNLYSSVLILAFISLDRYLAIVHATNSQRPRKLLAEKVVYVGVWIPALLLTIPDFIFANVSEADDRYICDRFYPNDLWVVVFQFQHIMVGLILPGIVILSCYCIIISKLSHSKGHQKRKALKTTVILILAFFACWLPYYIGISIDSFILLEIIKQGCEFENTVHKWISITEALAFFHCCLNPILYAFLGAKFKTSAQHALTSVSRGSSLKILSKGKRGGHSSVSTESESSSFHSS", "assay": "Receptor endocytosis analysis", "type": "cell-based", "settings": "hNSCs, ligand 4 µg/mL, 37°C"}, "activated M1 microglia": {"system": "activated M1 microglia", "assay": "Microgliosis and safety after intracerebral injection in adult mice", "type": "in vivo, mouse", "settings": "for CD11b+ cells (activated M1 microglia): adult mouse brain after injection, n = 3 mice per condition"}, "CXCR4 [3]": {"molecular_target": "T1, CXCR4", "assay": "Single-cell [Ca2+]i", "type": "cell-based", "settings": "SDV1a 10 µM; at least 11 cells per condition"}, "hNSCs [4]": {"system": "hNSCs", "assay": "Microarray gene expression and gene ontology analysis of hNSCs", "type": "cell-based, human", "settings": "hNSCs vs non-treated control"}, "[5]": {"assay": "Persistence and pharmacokinetics in mouse brain", "type": "in vivo"}, "CXCR4 [6]": {"molecular_target": "T1, CXCR4", "assay": "Ca2+ mobilization", "type": "cell-based", "settings": "Sup-T1 cells; for Ca2+ efflux (signaling) with increasing concentrations: Fura-2/AM ratiometric, plate reader, DV1 tested up to 40 µM"}, "hNSCs [7]": {"system": "hNSCs", "assay": "Boyden chamber transmigration assay, hNSCs", "type": "cell-based, human", "settings": "hNSCs 1x10^5, 8-µm fibronectin-coated transwell, 5 h"}, "hNSCs [8]": {"system": "hNSCs", "assay": "CyQuant proliferation assay, hNSCs", "type": "cell-based, human", "settings": "SDV1a 10 nM, 72 h"}, "CXCR4 [9]": {"molecular_target": "T1, CXCR4", "settings": "hNSCs preincubated with 10 µM, osmotic pump 24-72 h, analysis 3 d posttransplant"}, "transplanted hNSCs": {"system": "transplanted hNSCs", "type": "in vivo, mouse", "settings": "adult C57BL/6J mice, 2 µl injected into cortex or hippocampus, n=3 per group"}, "Sup-T1 cells": {"system": "Sup-T1 cells", "assay": "Boyden chamber chemotaxis assay, Sup-T1 cells", "type": "cell-based, human", "settings": "peptide in lower chamber at titrated concentrations, 37°C 2 h"}, "[10]": {"settings": "4-mo-old mice, hiPSC-hNSCs + SDV1a, n = 6"}}, "note": "Non-standard residues stand in square brackets, D forms with d. Residues, ends and D or L forms follow the SMILES beside them."}
{"compound": "CC(C)C[C@H](NC(=O)[C@H](CO)NC(=O)[C@@H](NC(=O)[C@@H]1CCCN1C(=O)[C@@H](N)CCCCN)C(C)C)C(=O)N[C@@H](CO)C(=O)N[C@@H](Cc1ccc(O)cc1)C(=O)N[C@@H](CCCNC(=N)N)C(=O)NCC(=O)NCC(=O)N[C@H](CC(C)C)C(=O)NCC(=O)N[C@H](C)C(=O)N[C@H](CO)C(=O)N[C@H](Cc1c[nH]c2ccccc12)C(=O)N[C@H](Cc1c[nH]cn1)C(=O)N[C@H](CCCNC(=N)N)C(=O)N1CCC[C@@H]1C(=O)N[C@H](CC(=O)O)C(=O)N[C@H](CCCCN)C(=O)N[C@H](CS)C(=O)N[C@H](CS)C(=O)N[C@H](CC(C)C)C(=O)NCC(=O)N[C@H](Cc1ccc(O)cc1)C(=O)N[C@H](CCC(N)=O)C(=O)N[C@H](CCCCN)C(=O)N[C@H](CCCNC(=N)N)C(=O)N1CCC[C@@H]1C(=O)N[C@H](CC(C)C)C(=O)N1CCC[C@@H]1C(N)=O", "note": "[SDV1a, L-(1∼8)-SDF1α-GG-D-(1∼21)-vMIP-II] (H-KPVSLSYRGG[dL]G[dA][dS][dW][dH][dR][dP][dD][dK][dC][dC][dL]G[dY][dQ][dK][dR][dP][dL][dP]-NH2; N-terminus assumed)", "values": [{"measurement": "GM2 ganglioside storage in cortex", "setting": "[1]; [10]", "value": "little GM2 accumulation occurred"}, {"measurement": "Microgliosis (Iba1) in cortex where donor cells engrafted", "setting": "[1]; [10]", "value": "scant"}, {"measurement": "Hex enzyme levels in CNS parenchyma", "setting": "[1]; hiPSC-hNSC+SDV1a, regions where donor cells were attracted", "value": "raised beyond the critical 3 to 5% therapeutic threshold"}, {"measurement": "Phosphorylation of p38-MAPK (Thr180/Tyr182) and IκBα (Ser-32/36)", "setting": "ERK1/2, p38-MAPK, IκBα", "value": "phosphorylated"}, {"measurement": "Time to down-regulation of CXCR4 surface expression", "setting": "CXCR4 [2]", "value": 90, "unit": "min"}, {"measurement": "CD11b+ cells (activated M1 microglia)", "setting": "activated M1 microglia", "value": "1.1 ± 1.0", "unit": "per 0.4 mm^2"}, {"measurement": "Systemic or CNS toxicity, behavior", "setting": "activated M1 microglia; mice after intracerebral injection", "value": "no evidence of systemic or CNS toxicity or altered behavior"}, {"measurement": "Change of [Ca2+]i in single hNSCs", "setting": "CXCR4 [3]", "value": "increased [Ca^2+]i"}, {"measurement": "Gene ontology profile induced in hNSCs", "setting": "hNSCs [4]", "value": "primarily induced genes associated with developmental, homeostatic, and stem cell-related functions"}, {"measurement": "Persistence in brain after injection", "setting": "[5]; FITC- or biotin-tagged SDV1a, adult mouse brain", "value": 3, "unit": "wk"}, {"measurement": "Time to dissemination throughout the regions", "setting": "[5]; postinjection, C57BL/6J mice, HPLC-MS/MS", "value": "≤ 30", "unit": "min"}, {"measurement": "Signaling intensity (Ca2+ release) relative to CXCL12/SDF1α", "setting": "CXCR4 [6]; Fura-2/AM", "value": "an order-of-magnitude less"}, {"measurement": "Concentration at which hNSC chemotaxis peaks (bell-shaped dose-response)", "setting": "hNSCs [7]", "value": 5, "unit": "nM"}, {"measurement": "Increase in total DNA content compared to untreated controls", "setting": "hNSCs [8]", "value": 10, "unit": "%"}]}
{"compound": "c1cc(CN2CCCNCCNCCCNCC2)ccc1CN1CCCNCCNCCCNCC1", "note": "[AMD3100]", "values": [{"measurement": "Effect of CXCR4 inhibition on hNSC migration to SDV1a", "setting": "CXCR4 [9]", "value": "abrogated"}]}
{"compound": "C-X-C motif chemokine ligand-12 [CXCL12]", "values": [{"measurement": "Time after which cell surface CXCR4 starts to rebound", "setting": "CXCR4 [2]", "value": "> 45", "unit": "min"}, {"measurement": "Time to down-regulation of CXCR4 surface expression", "setting": "CXCR4 [2]", "value": "≤ 10", "unit": "min"}, {"measurement": "Persistence of microgliosis postinjection", "setting": "activated M1 microglia; adult mouse brain", "value": 2, "unit": "wk"}, {"measurement": "CD11b+ cells (activated M1 microglia)", "setting": "activated M1 microglia", "value": "11.7 ± 2.8", "unit": "per 0.4 mm^2"}, {"measurement": "Gene ontology profile induced in hNSCs", "setting": "hNSCs [4]", "value": "up-regulation of inflammatory and immune-related processes"}, {"measurement": "Attraction of hNSCs transplanted into the contralateral hippocampus", "setting": "transplanted hNSCs", "value": "drew no hNSCs"}, {"measurement": "Time by which undetectable in brain after administration", "setting": "[5]; similarly labeled recombinant CXCL12, adult mouse brain", "value": "≤ 2", "unit": "days"}, {"measurement": "Ca2+ efflux (signaling) with increasing concentrations", "setting": "CXCR4 [6]", "value": "produced the most intense signaling"}, {"measurement": "Concentration at which hNSC chemotaxis peaks (bell-shaped dose-response)", "setting": "hNSCs [7]", "value": 0.5, "unit": "nM"}]}
{"compound": "D-(1~21)-vMIP-II [DV1]", "values": [{"measurement": "Chemotaxis of Sup-T1 cells (upper to lower chamber)", "setting": "Sup-T1 cells", "value": "elicited no chemotaxis"}, {"measurement": "Ca2+ efflux (signaling) with increasing concentrations", "setting": "CXCR4 [6]", "value": "evoked no signaling"}]}
{"compound": "L-(1~8)-SDF1a (KPVSLSYR; UniProt P48061 22-29, looked up, fragment) [S1]", "values": [{"measurement": "Chemotaxis of Sup-T1 cells (upper to lower chamber)", "setting": "Sup-T1 cells", "value": "elicited no chemotaxis"}]}
